Source: patent publication US20250057844A1, “METHODS OF TREATING NEOPLASTIC DISEASES” (SILLAJEN, INC., priority 2021, published 2025)
“Also recorded” adds a separate entry of the source. Like-named read-outs stand apart in the source and are kept apart here.

Assays:
[1] = Maximum tolerated dose (MTD) in mice; conditions: mouse, in vivo
[2] = Second PK study: daily oral dose for 5 days, two formulations; format: in vivo, female Swiss Albino mice; conditions: for AUC(0-t): AUC0-24 h
Method: In a second study female Swiss Albino mice were administered daily oral dose of 5, 7.5, or 10 mg/kg of the compound of formula (I) for 5 days. […] PK samples were collected on day 5 for groups 1 to 6. Formulation 1 consisted of DMSO, cremophor EL, and 5% mannitol in water (10/10/80; v/v/v). Formulation 2 consisted of ethanol, PEG 400, and citric acid 20 mM (10/10/80; v/v/v). […] In each of the three studies blood was collected via the sephanous vein into K2-EDTA tubes kept on ice until centrifugation at 4° C. Plasma was stored at ap-proximately-80° C. […] PK parameters were calculated using Phoenix® WinNonLin 6.4. PK analysis was based on sparse sampling.

[3] = test system: tumor patient-derived xenografts (PDX), including TNBC and hepatocellular cancer (HCC) models; assay: Patient-derived xenografts (PDX) in mice; format: in vivo; conditions: data not shown
MDA-MB-231 tumor cells = assay: MDA-MB-231 TNBC xenograft study
Method: Female NCr nu/nu nude mice (CharlesRiver laboratories) of 8-12 weeks of age were subcutaneously (s.c.) inoculated in the flank with 5×10^6 MDA-MB-231 tumor cells. Randomization into treatment groups (8 mice per group) was made when the mean tumor size was 100-150 mm3.
Body weights and tumor volumes were determined at least twice per week by measuring two dimensions with calipers and applying the formula “V=(L×W2)/2”, where V is the tumor volume, and L and W are the tumor length and width respectively. […] Mice were also culled if the BWL was determined to be >15% for 3 consecutive days. Any mice with >10% BWL received a dosing holiday until the BWL returned to <10%. All animal protocols were reviewed and approved by the relevant local committees in USA (IACUC) where the studies were performed.

[4] = Third PK study: intravenous dose on day 1 or on day 6 after 5 days oral dosing; format: in vivo, female Swiss Albino mice; conditions: for half-life / clearance / Vd / AUC(0-inf) / AUC(0-t) / C0: female, Swiss Albino, mouse, plasma, iv, 5 mg/kg
Method: In a third study female Swiss Albino mice were administered intravenously (bolus, 5 mL/kg) dose of 5 mg/kg of the compound of formula (I). Group 1 (9 mice) received a single i.v. dose administration on day 1. Group 2 (9 mice) received daily oral administration of 10 mg/kg of the compound of formula (I) from day 1 to day 5 following by a single i.v. dose administration of 5 mg/kg of the compound of formula (I) on day 6. PK samples were collected on day 1 for group 1 and on day 6 for group 2. The formulation vehicle consisted of ethanol, PEG 400 and citric acid 20 mM (10/10/80; v/v/v) in water for injection (WFI). Blood samples were taken pre-dose and at 0.083, 0.25, 0.5, 1, 2, 6, 12, and 24 h post-dose administration (3 mice/time point). In each of the three studies blood was collected via the sephanous vein into K2-EDTA tubes kept on ice until centrifugation at 4° C. Plasma was stored at ap-proximately-80° C. […] PK parameters were calculated using Phoenix® WinNonLin 6.4. PK analysis was based on sparse sampling.

[5] = day 5, daily oral 5 mg/kg, Formulation 1, female mice
[6] = day 5, daily oral 5 mg/kg, Formulation 2, female mice
[7] = day 5, daily oral 7.5 mg/kg, Formulation 1, female mice
[8] = day 5, daily oral 7.5 mg/kg, Formulation 2, female mice
[9] = day 5, daily oral 10 mg/kg, Formulation 1, female mice
[10] = day 5, daily oral 10 mg/kg, Formulation 2, female mice
[11] = female, Swiss Albino, mouse, plasma, po, 5 mg/kg, day 5, daily oral 5 mg/kg, Formulation 1, female mice
[12] = female, Swiss Albino, mouse, plasma, po, 5 mg/kg, day 5, daily oral 5 mg/kg, Formulation 2, female mice
[13] = female, Swiss Albino, mouse, plasma, po, 7.5 mg/kg, day 5, daily oral 7.5 mg/kg, Formulation 1, female mice
[14] = female, Swiss Albino, mouse, plasma, po, 7.5 mg/kg, day 5, daily oral 7.5 mg/kg, Formulation 2, female mice
[15] = female, Swiss Albino, mouse, plasma, po, 10 mg/kg, day 5, daily oral 10 mg/kg, Formulation 1, female mice
[16] = female, Swiss Albino, mouse, plasma, po, 10 mg/kg, day 5, daily oral 10 mg/kg, Formulation 2, female mice
[17] = Group 1, Day 1: single 5 mg/kg i.v., female mice
[18] = Group 2, Day 6: 5 mg/kg i.v. after 10 mg/kg oral daily for 5 days, female mice

COc1cc(N2CCNCC2)ccc1Nc1ncc2c(n1)-n1ccc(C(=O)Nc3c(C)cccc3C)c1CC2 [compound of formula (I)]
MTD ([1]; iv, 2QW): 12.5 mg/kg
MTD ([1]; iv, QW): 25 mg/kg
MTD ([1]; po, orally daily): 7.5 mg/kg
Tmax ([2]; Swiss Albino, mouse, plasma, day 5, daily oral 5 mg/kg, Formulation 1, female mice, read-out: Tmax): 2 h
Tmax ([2]; Swiss Albino, mouse, plasma, day 5, daily oral 7.5 mg/kg, Formulation 1, female mice, read-out: Tmax): 4 h
Tmax ([2]; Swiss Albino, mouse, plasma, day 5, daily oral 10 mg/kg, Formulation 1, female mice, read-out: Tmax): 4 h
% extrapolated [2, 5]: 8.33%
AUCinf/Dose [2, 5]: 81.6 ng·h/mL/mg/kg
AUClast/Dose [2, 5]: 74.8 (h*ng/mL)/(mg/kg)
Cmax/Dose [2, 5]: 5.16 (ng/mL)/(mg/kg)
% extrapolated [2, 6]: 1.53%
AUCinf/Dose [2, 6]: 116 ng·h/mL/mg/kg
AUClast/Dose [2, 6]: 114 (h*ng/mL)/(mg/kg)
Cmax/Dose [2, 6]: 9.48 (ng/mL)/(mg/kg)
% extrapolated [2, 7]: 5.04%
AUCinf/Dose [2, 7]: 50 ng·h/mL/mg/kg
AUClast/Dose [2, 7]: 47.5 (h*ng/mL)/(mg/kg)
Cmax/Dose [2, 7]: 6.03 (ng/mL)/(mg/kg)
% extrapolated [2, 8]: 1.77%
AUCinf/Dose [2, 8]: 82.4 ng·h/mL/mg/kg
AUClast/Dose [2, 8]: 80.9 (h*ng/mL)/(mg/kg)
Cmax/Dose [2, 8]: 8.36 (ng/mL)/(mg/kg)
% extrapolated [2, 9]: 7.41%
AUCinf/Dose [2, 9]: 60.8 ng·h/mL/mg/kg
AUClast/Dose [2, 9]: 56.3 (h*ng/mL)/(mg/kg)
Cmax/Dose [2, 9]: 4.01 (ng/mL)/(mg/kg)
% extrapolated [2, 10]: 12.7%
AUCinf/Dose [2, 10]: 87 ng·h/mL/mg/kg
AUClast/Dose [2, 10]: 76 (h*ng/mL)/(mg/kg)
Cmax/Dose [2, 10]: 5.65 (ng/mL)/(mg/kg)
bioavailability ([2]; female, Swiss Albino, mouse, plasma, oral, multiple daily dose administration, based on i.v. exposure, read-out: oral bioavailability): 18 to 41%
AUC(0-inf) [2, 11]: 408 ng·h/mL
Cmax [2, 11]: 25.8 ng/mL
AUC(0-t) [2, 11]: 374 ng·h/mL
bioavailability ([2]; female, Swiss Albino, mouse, plasma, po, 5 mg/kg, day 5, daily oral 5 mg/kg, Formulation 1, female mice, based on iv exposure, read-out: F (%)): 29%
half-life at 5 days ([2]; female, Swiss Albino, mouse, plasma, po, 5 mg/kg, day 5, daily oral 5 mg/kg, Formulation 1, female mice, read-out: Apparent T1/2 (converted)): 7.8 h
AUC(0-inf) [2, 12]: 579 ng·h/mL
Cmax [2, 12]: 47.4 ng/mL
AUC(0-t) [2, 12]: 570 ng·h/mL
bioavailability ([2]; female, Swiss Albino, mouse, plasma, po, 5 mg/kg, day 5, daily oral 5 mg/kg, Formulation 2, female mice, based on iv exposure, read-out: F (%)): 41%
half-life ([2]; female, Swiss Albino, mouse, plasma, po, 5 mg/kg, day 5, daily oral 5 mg/kg, Formulation 2, female mice, read-out: Apparent T1/2 (converted)): 4.02 h
AUC(0-inf) [2, 13]: 375 ng·h/mL
Cmax [2, 13]: 45.2 ng/mL
AUC(0-t) [2, 13]: 356 ng·h/mL
bioavailability ([2]; female, Swiss Albino, mouse, plasma, po, 7.5 mg/kg, day 5, daily oral 7.5 mg/kg, Formulation 1, female mice, based on iv exposure, read-out: F (%)): 18%
half-life ([2]; female, Swiss Albino, mouse, plasma, po, 7.5 mg/kg, day 5, daily oral 7.5 mg/kg, Formulation 1, female mice, read-out: Apparent T1/2 (converted)): 5.31 h
AUC(0-inf) [2, 14]: 618 ng·h/mL
Cmax [2, 14]: 62.7 ng/mL
AUC(0-t) [2, 14]: 607 ng·h/mL
bioavailability ([2]; female, Swiss Albino, mouse, plasma, po, 7.5 mg/kg, day 5, daily oral 7.5 mg/kg, Formulation 2, female mice, based on iv exposure, read-out: F (%)): 29%
half-life ([2]; female, Swiss Albino, mouse, plasma, po, 7.5 mg/kg, day 5, daily oral 7.5 mg/kg, Formulation 2, female mice, read-out: Apparent T1/2 (converted)): 3.79 h
AUC(0-inf) [2, 15]: 608 ng·h/mL
Cmax [2, 15]: 40.1 ng/mL
AUC(0-t) [2, 15]: 563 ng·h/mL
bioavailability ([2]; female, Swiss Albino, mouse, plasma, po, 10 mg/kg, day 5, daily oral 10 mg/kg, Formulation 1, female mice, based on iv exposure, read-out: F (%)): 22%
half-life ([2]; female, Swiss Albino, mouse, plasma, po, 10 mg/kg, day 5, daily oral 10 mg/kg, Formulation 1, female mice, read-out: Apparent T1/2 (converted)): 5.81 h
AUC(0-inf) [2, 16]: 870 ng·h/mL
Cmax [2, 16]: 56.5 ng/mL
AUC(0-t) [2, 16]: 760 ng·h/mL
bioavailability ([2]; female, Swiss Albino, mouse, plasma, po, 10 mg/kg, day 5, daily oral 10 mg/kg, Formulation 2, female mice, based on iv exposure, read-out: F (%)): 31%
half-life ([2]; female, Swiss Albino, mouse, plasma, po, 10 mg/kg, day 5, daily oral 10 mg/kg, Formulation 2, female mice, read-out: Apparent T1/2 (converted)): 7.66 h
Tmax ([2]; female, Swiss Albino, mouse, plasma, day 5 of daily oral administration, read-out: median Tmax): 2 to 4 h
activity against PDX [3]: significant activity
Tumor-free (%) (cured based on pathological analysis) (MDA-MB-231 tumor cells; 25 mg/kg, QW, IV): 25%
Tumor-free (pathological evaluation) (MDA-MB-231 tumor cells; 25 mg/kg, QW, IV, mouse 2 and 3): no detectable residual tumor cells; also recorded: no neoplastic epithelial cells (residual tumor cells) were observed
Tumor-free (pathological evaluation) (MDA-MB-231 tumor cells; 25 mg/kg, QW, IV, mouse 2 and 3, listed as Formula (I)): Yes
Tumor-free (pathological evaluation) (MDA-MB-231 tumor cells; 25 mg/kg, QW, IV, mouse 8): two small aggregates of neoplastic cells at the inoculation site; also recorded: still displayed some neoplastic tissue
Tumor-free (pathological evaluation) (MDA-MB-231 tumor cells; 25 mg/kg, QW, IV, mouse 8, listed as Formula (I)): No
local finding leading to treatment stop at Day-30 (MDA-MB-231 tumor cells; 2QW MTD i.v. dosing, repeated IV-injections): tail vein irritations (scabbing)
efficacy of 0.5×MTD i.v. dosing versus MTD daily oral dosing (MDA-MB-231 tumor cells; FIG. 3 and FIG. 4): equipotent efficacy
animals with no measurable/palpable tumor mass (MDA-MB-231 tumor cells; QW MTD i.v. until Day-98, observed Day-80 to Day-125, two of eight animals (FIG. 3 study)): 25%
residual tumor cells by H&E (two animals without palpable tumor) (MDA-MB-231 tumor cells; QW MTD i.v., FIG. 3 study, Day-125): tumor-free
efficacy of MTD i.v. dosing versus MTD oral daily treatment (MDA-MB-231 tumor cells; QW and 2QW i.v., FIG. 3 and FIG. 4): far superior
drug-related animal deaths (MDA-MB-231 tumor cells; all i.v. QW and 2QW treatments, FIG. 1): no drug-related animal deaths recorded
body weight loss (MDA-MB-231 tumor cells; dosing at the MTD, i.v., FIG. 1): ≤ 10%
anti-tumor effect (MDA-MB-231 tumor cells; i.v. MTD-dosing (QW 25 mg/kg, 2QW 12.5 mg/kg), FIG. 1): tumor stasis and tumor regressions were observed
tolerability (MDA-MB-231 tumor cells; mouse, in vivo): relatively well tolerated, with no animal deaths
tumor volume of three of eight tumors after treatment cessation (MDA-MB-231 tumor cells; weekly i.v. MTD group, 20 days observation after cessation on D100): ≤ 6 mm3
concentrations at 24 hours lower than C0 ([4]; 5 mg/kg i.v.): more than 100 fold
maximum AUCinf extrapolation ([4]; 5 mg/kg i.v.): ≤ 2.54%
AUC_% extrapolated [4, 17]: 2.54%
Clast [4, 17]: 5.4 ng/mL
AUC_% extrapolated [4, 18]: 1.65%
Clast [4, 18]: 4.29 ng/mL
half-life ([4]; 5 mg/kg i.v., both groups, read-out: half-life): 4 to 4.7 h
clearance ([4]; 5 mg/kg i.v., both groups, read-out: plasma clearance): 55.4 to 57.9 mL/min/kg
Vd ([4]; 5 mg/kg i.v., both groups, read-out: volume of distribution): 15.4 to 19 L/kg
AUC(0-inf) [4, 17]: 1440 ng·h/mL
AUC(0-t) [4, 17]: 1400 ng·h/mL
C0 [4, 17]: 636 ng/mL
clearance ([4]; Group 1, Day 1: single 5 mg/kg i.v., female mice, read-out: CL): 57.9 mL/min/kg
half-life ([4]; Group 1, Day 1: single 5 mg/kg i.v., female mice, read-out: T1/2 (converted)): 4.7 h
Vd ([4]; Group 1, Day 1: single 5 mg/kg i.v., female mice, read-out: Vss): 19 L/kg
AUC(0-inf) [4, 18]: 1500 ng·h/mL
AUC(0-t) [4, 18]: 1480 ng·h/mL
C0 [4, 18]: 627 ng/mL
clearance ([4]; Group 2, Day 6: 5 mg/kg i.v. after 10 mg/kg oral daily for 5 days, female mice, read-out: CL): 55.4 mL/min/kg
half-life ([4]; Group 2, Day 6: 5 mg/kg i.v. after 10 mg/kg oral daily for 5 days, female mice, read-out: T1/2 (converted)): 4 h
Vd ([4]; Group 2, Day 6: 5 mg/kg i.v. after 10 mg/kg oral daily for 5 days, female mice, read-out: Vss): 15.4 L/kg
